# According to patent US10414763B2 (CANCER RESEARCH TECHNOLOGY LIMITED, priority 2014, dated 2019):
# Biological target: T1, full-length human PKCι (Homo sapiens, UniProt P41743)
# T1 construct: Recombinant, full-length human PKCι expressed in Sf21 insect cells is also commercially available; purchased EMD Millipore; host or cells: Sf21 insect cells (baculovirus)
# T1 sequence (P41743 1-596): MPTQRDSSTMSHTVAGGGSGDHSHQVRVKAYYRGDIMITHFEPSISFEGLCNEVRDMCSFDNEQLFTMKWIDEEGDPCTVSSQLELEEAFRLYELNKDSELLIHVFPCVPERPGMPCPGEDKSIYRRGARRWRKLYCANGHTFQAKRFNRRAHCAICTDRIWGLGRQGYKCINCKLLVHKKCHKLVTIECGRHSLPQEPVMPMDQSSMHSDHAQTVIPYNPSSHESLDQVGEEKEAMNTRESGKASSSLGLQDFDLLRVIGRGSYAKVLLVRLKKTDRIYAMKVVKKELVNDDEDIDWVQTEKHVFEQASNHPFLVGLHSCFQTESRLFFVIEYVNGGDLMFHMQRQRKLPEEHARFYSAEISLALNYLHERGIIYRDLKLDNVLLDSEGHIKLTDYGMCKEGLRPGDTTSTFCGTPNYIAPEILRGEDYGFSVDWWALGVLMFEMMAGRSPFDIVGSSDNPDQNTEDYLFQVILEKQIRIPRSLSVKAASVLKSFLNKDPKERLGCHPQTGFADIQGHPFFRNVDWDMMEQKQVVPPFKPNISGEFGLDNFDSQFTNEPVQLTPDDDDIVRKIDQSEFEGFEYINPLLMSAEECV
# Assay: PKCι IC50 IMAP fluorescence polarisation assay, full-length enzyme, 150 μM ATP
# Format: biochemical
# Settings: read-out: IC50 in IMAP assay against full length PKCi at 150 μM ATP
# Description: Assays are based on the ability of PKCι to phosphorylate a commercially available peptide substrate in vitro. The peptide substrate is FAM-PKCε pseudopeptide derived peptide, and comprises the amino acid sequence 5FAM-ERMRPRKRQGSVRRRV-NH2. Recombinant, full-length human PKCι expressed in Sf21 insect cells is also commercially available. Recombinant, kinase-domain human PKCι is expressed and purified in-house.
# The procedure below explains how dose response curves for inhibitors of PKCι are obtained. The screen described is for a 384 well format but the assay can be adapted to 1536 or other formats as required.
# Compounds to be tested are dissolved in 100% DMSO. Compounds are diluted as required to give a final concentration of 4% DMSO (v/v) in the assay. 1 μl is plated into 384 well black low-binding flat bottomed assay plates which are used immediately. Dilutions and additions of compound to assay plates are carried out using Matrix WellMate® and Matrix PlateMate® Plus liquid handling systems.
# On the day of the screen PKCι/substrate working solution, and ATP working solution, are prepared in buffer containing 20 mM tris-HCl pH7.5, 10 mM MgCl2, 0.01% Triton X100, 250 μM EGTA and 1 mM DTT. The final concentration of PKCι used varies depending on the batch of protein but is typically 15 pM. The final concentration of peptide substrate in the assay is 100 nM. ATP is used at a final concentration of 150 μM or 25 μM in the assays containing full-length or kinase-domain PKCι respectively, which corresponds to five times or equal to the KM^APP for ATP for each enzyme, respectively. The final buffer concentration in the assay is 18 mM tris-HCl pH7.5, 9 mM MgCl2, 0.009% Triton X100, 225 μM EGTA and 0.9 mM DTT. Relevant controls are included, namely no compound and no enzyme. 5 μl PKCι/substrate working solution at 30 pM and 200 nM, respectively, is added to the wells, followed by 4 μl ATP working solution at 375 μM or 62.5 μM for full-length or kinase-domain PKCι respectively, using a 16 channel Matrix pipette. The reaction is allowed to incubate for 60 minutes at room temperature, before the reaction is stopped and developed by the addition of 20 μl IMAP™ development reagent (Molecular Devices). IMAP development reagent consists of 0.25% (v/v) IMAP progressive binding reagent, 17% (v/v) IMAP progressive binding buffer A and 3% (v/v) IMAP progressive binding buffer B. The plates are then incubated for 2 hours at room temperature before being read using an appropriate plate reader, for example a Molecular Devices HT Analyst or a BMG Pherastar. Plates are read using a fluorescence polarisation protocol with excitation at 485 nm and emission at 530 nm, and dichroic mirror at 505 nm.
# Percentage inhibition values are calculated from fluorescence polarisation values, using the no compound and no enzyme control values as 0% and 100% inhibition, respectively. IC50 determination is performed with ExcelFit software (IDBS) using curve fit 205. Z′ factors are determined for each plate tested and are all above 0.5.
# Alternatively, compounds were tested for their ability to inhibit the kinase activity of recombinant human baculovirus-expressed PKCiota using the immobilized metal-ion affinity particle (IMAP®) fluorescence polarization detection system (Molecular Devices, Sunnyvale, Calif.). PKCiota/IMAP® substrate mixture (2×) was prepared in 1×IMAP assay buffer (Molecular Devices) containing 1 mM DTT so that the final assay concentrations were 15 pM PKCiota (EMD Millipore, Billerica, Mass.) and 100 nM 5-fluorescein-amidite (FAM)-PKC ? -pseudosubstrate (5-FAM-ERMRPRKRQGSVRRRV-NH2) (Molecular Devices). The 2× working solution was added at 5 μL/well into a 384-well black, non-binding, flat bottom assay plate (Corning, Corning, N.Y.). […]
row,Compound,IC50
1,"O[C@]12CCN(c3nc(-c4ccnc5[nH]c6ccccc6c45)nc4cncc(C5CC5)c34)[C@H]1CCNC2 (racemic) [Example 113, (±)-(3aS,7aS)-1-[5-Cyclopropyl-2-(9H-pyrido[2,3-b]indol-4-yl)-pyrido[3,4-d]pyrimidin-4-yl]-octahydro-pyrrolo [3,2-c]pyridin-3a-ol]",< 0.1 µM
2,"CN(c1nc(-c2ccnc3[nH]c4ccccc4c23)nc2cncc(C3CC3)c12)[C@@H]1CCNC[C@@]1(C)O (racemic) [Example 114, (±)-(3,4-trans)-4-{[5-Cyclopropyl-2-(9H-pyrido[2,3-b]indol-4-yl)-pyrido[3,4-d]pyrimidin-4-yl]-methyl-amino}-3-methyl-piperidin-3-ol]",< 0.1 µM
3,"Cc1cc2c(-c3nc(N4CC[C@]5(O)CNCC[C@H]45)c4c(C5CCC5)cncc4n3)ccnc2[nH]1 (racemic) [Example 117, (±)-(3aS,7aS)-1-[5-Cyclobutyl-2-(2-methyl-1H-pyrrolo[2,3-b]pyridin-4-yl)-pyrido[3,4-d]pyrimidin-4-yl]-octahydro-pyrrolo [3,2-c]pyridin-3a-ol]",< 0.1 µM
4,"O[C@]12CCN(c3nc(-c4ccnc5[nH]c(-c6ccccc6Cl)cc45)nc4cncc(C5CC5)c34)[C@H]1CCNC2 (racemic) [Example 143, (±)-(3aS,7aS)-1-{2-[2-(2-Chloro-phenyl)-1H-pyrrolo[2,3-b]pyridin-4-yl]-5-cyclopropyl-pyrido[3,4-d]pyrimidin-4-yl}-octahydro-pyrrolo [3,2-c]pyridin-3a-ol]",< 0.1 µM
5,"O[C@]12CCN(c3nc(-c4ccnc(Nc5nc6ccccn6n5)c4)nc4cncc(C5CC5)c34)[C@H]1CCNC2 (racemic) [Example 151, (±)-(3aS,7aS)-1-{5-Cyclopropyl-2-[2-([1,2,4]triazolo[1,5-a]pyridin-2-ylamino)-pyridin-4-yl]-pyrido[3,4-d]pyrimidin-4-yl}-octahydro-pyrrolo [3,2-c]pyridin-3a-ol]",< 0.1 µM
6,"N[C@H]1C[C@H](Nc2nc(-c3ccnc4[nH]c5ccccc5c34)nc3cncc(C4CCC4)c23)C[C@H]1F (racemic) [Example 207, (±)-(1S,3S,4S)-N*l*-[5-Cyclobutyl-2-(9H-pyrido[2,3-b]indol-4-yl)-pyrido[3,4-d]pyrimidin-4-yl]-4-fluoro-cyclopentane-1,3-diamine]",0.1 to 1 µM
7,"C[C@@H]1CNCC[C@H]1Nc1nc(-c2ccnc(Nc3nc(F)ccc3F)c2)nc2cncc(C3CC3)c12 (racemic) [Example 223, (±)-{5-Cyclopropyl-2-[2-(3,6-difluoro-pyridin-2-ylamino)-pyridin-4-yl]-pyrido[3,4-d]pyrimidin-4-yl}-((3,4-trans)-3-methyl-piperidin-4-yl)-amine]",< 0.1 µM
8,"C[C@@H]1CNCC[C@@H]1Nc1nc(-c2ccnc(Nc3nc(F)ccc3F)c2)nc2cncc(C3CC3)c12 (racemic) [Example 224, (±)-{5-Cyclopropyl-2-[2-(3,6-difluoro-pyridin-2-ylamino)-pyridin-4-yl]-pyrido[3,4-d]pyrimidin-4-yl}-((3,4-cis)-3-methyl-piperidin-4-yl)-amine]",< 0.1 µM
9,"C[C@H]1C[C@@H](Nc2nc(-c3ccnc(Nc4nc(F)ccc4F)c3)nc3cncc(C4CC4)c23)CCN1 (racemic) [Example 225, (±)-{5-Cyclopropyl-2-[2-(3,6-difluoro-pyridin-2-ylamino)-pyridin-4-yl]-pyrido[3,4-d]pyrimidin-4-yl}-((2,4-cis)-2-methyl-piperidin-4-yl)-amine]",< 0.1 µM
10,"C[C@@H]1C[C@@H](Nc2nc(-c3ccnc(Nc4nc(F)ccc4F)c3)nc3cncc(C4CC4)c23)CCN1 (racemic) [Example 226, (±)-{5-Cyclopropyl-2-[2-(3,6-difluoro-pyridin-2-ylamino)-pyridin-4-yl]-pyrido[3,4-d]pyrimidin-4-yl}-((2,4-trans)-2-methyl-piperidin-4-yl)-amine]",0.1 to 1 µM
11,"OC1CNCCC(Nc2nc(-c3ccnc4[nH]c5ccccc5c34)nc3cncc(C4CCC4)c23)C1 (racemic) [Example 230, Cis- or trans-(±)-5-[5-Cyclobutyl-2-(9H-pyrido[2,3-b]indol-4-yl)-pyrido[3,4-d]pyrimidin-4-ylamino]-azepan-3-ol]",< 0.1 µM
